What was measured:
[1] = test system: normal rats receiving a high-fat diet; conditions: daily peritoneal injection, vs untreated rats; cited from earlier work
[2] = test system: nuclear receptors of the thyroid hormones, TRα-1 and TRβ-1; conditions: literature statements; cited from earlier work
[3] = test system: Wistar rats; experiment: Growth rate (body weight) and food intake of Wistar rats; type: in vivo, rat
Procedure: Adult male rat bred in the animal room facilities of Laboratory of Fundamental and Applied Bioenergetics (Wistar strain) or purchased from Charles-River Laboratories, Domaine des oncins, L'ARBRESLE France [(genetically obese normoglycemic (Zucker or Fa/Fa) or diabetic (ZDF)] were caged individually in stainless steel hanging cages and maintained in a 22° C., 50±10% relative humidity and 12 h:12 h light:dark environment. All animals were fed ad libitum with a standard rat chow (Safe A04, Villemoisson, France) and tap water. Body mass and food intake were recorded twice/thrice a week and fresh food was provided at the same time to ensure minimal disturbance to the animals' food behavior.
Eight-week old rats (300 g±10 g) were anesthetized by simultaneous intraperitoneal injection of diazepam 4 mg/kg and ketamine 100 mg/kg. In order to maintain body temperature during the surgery (10 min), animals were placed on a warm blanket. After interscapular shaving, a small incision of 0.5 cm of the skin allows the subcutaneous implantation of a small pellet (containing rT3 or 3′,3-T2) with a 10-gauge precision trochar. The pellets, manufactured by Innovative Research of America (Sarasota, Fla., USA) are constituted of a biodegradable matrix that effectively and continuously release the active product in the animal.
[…] (reverseT3) or 3-3′ diiodothyronine (3-3′ T2) were used at different doses (5, 0.5, or 0.1 mg/pellet) were implanted in order to provide a continuous and constant drug delivery over 60 days (which represents 25 μg, 2.5 μg or 0.5 μg/day/100 g BW).
Wistar rats were treated with rT3 hormone by a daily intraperitoneal injection (IP) (25 μg/100 g BW), a daily sub-cutaneous injection (SC) (25 μg/100 g BW), or a per os administration included in the rat food (25 μg/100 g BW). The continuous and constant administration was performed by using a pellet (25 μg/100 g BW).
However the role of the administration site was further investigated by comparing continuous administration of rT3 by osmotic pump implanted either subcutaneously or intraperitonally with the reference treatment administered by sub-cutaneous pellets. Wistar rats were treated for 21 days with placebo, sub-cutaneous pellet or sub-cutaneous or intraperitoneal osmotic pumps. rT3 was administered continuously (2.5 μg/100 g).
Wistar rats were treated by a continuous and constant administration of low doses of rT3 by 3 different methods of administration: • a sub-cutaneous pellet, • an osmotic pump placed under the skin, and • an osmotic pump placed in the peritoneal cavity.

[4] = test system: Wistar rats; experiment: Indirect calorimetry (energy expenditure, respiratory quotient) of Wistar rats; type: in vivo, rat; conditions: 25 μg/100 g BW pellet, vs placebo
Excerpt: Energy expenditure as well as the nature of substrate oxidized (carbohydrates or lipids) were investigated by indirect calorimetry. This principle is based on the determinations of CO2 release (VCO2) and O2 consumption (VO2) by each animal. It assumes that O2 is entirely involved in substrate oxidation in the respiratory chain (leading to water production) while CO2 release is related to substrate decarboxylation (in the Krebs' cycle). These measurements allow assessing energy expenditure (EE) and respiratory quotient ([…], RQ). EE represent the absolute energy dissipation during rest and activity. RQ is a relative measurement indicating the ratio of carbohydrate versus lipid involved in oxidative pathway. A ratio of 1.0 indicates exclusive carbohydrate oxidation while a ratio of 0.7 indicates exclusive lipid oxidation. Each value between these two extreme values indicates the relative proportion of each substrate (of note protein oxidation was not evaluated). As an example, RQ approaches 0.7 during fasting, indicating lipid oxidation, conversely after feeding RQ increases close to 1 indicating carbohydrate oxidation resulting from food intake and blood insulin rise. Likewise, animals fed high-carbohydrate diets have higher RQs than those fed high-fat diets.
The indirect calorimetry system (Panlab, Barcelona, Spain) consists of cages, pumps, flow controllers, valves, and analyzers. It is computer-controlled in order to sequentially measure O2 and CO2 concentrations as well as air flow in four separate cages allowing four simultaneous determinations. Rats are isolated in one of the four metabolic chambers, and room air is used as a reference to monitor ambient O2 and CO2 concentrations periodically.
At predefined intervals, the computer sends a signal to store differential CO2 and O2 concentrations, flow rate, allowing computing VCO2, VO2, RQ, and EE (Weir equation) with data acquisition hardware (Metabolism, Panlab, Barcelona, Spain).

[5] = test system: Wistar rats; experiment: Body composition (adipose tissues, skeletal muscles, brown adipose tissue) of Wistar rats; type: in vivo, rat; conditions: three weeks, vs placebo
Excerpt: (§1) At the end of the experimental period, animals were sacrificed by decapitation, in order to avoid the well-known effects of general anesthetics on mitochondrial metabolism. Blood samples were immediately collected and plasma was frozen for subsequent determination of serum metabolites and hormones. Liver, muscles and fat depots were quickly excised and weighed. Liver median lobe was rapidly freeze-clamped. Muscles (plantaris, soleus and gastrocnemius) were frozen in isopentane precooled in liquid nitrogen. Mesenteric fat consisted of adipose tissue surrounding the gastro-intestinal tract from the gastro-oesophageal sphincter to the end of the rectum with special care taken in distinguishing and removing the pancreas. Retroperitoneal fat pad was taken as the distinct depot behind each kidney along the lumbar muscles. Epididymal fat consisted of adipose tissue on top of the epididymis. For subcutaneous depot measurement, a rectangular piece of skin was taken on the right side of each animal from the median line of the abdomen between the spine and the right hip to the first rib. Interscapular brown adipose tissue was removed and dissected free from adjacent muscles and white adipose tissue. The heart ventricles, the right kidney and the spleen were also excised, weighed and frozen.

[6] = test system: liver mitochondria; experiment: Rate of liver mitochondrial oxygen consumption (JO2) of treated Wistar rats; type: in vivo, rat; conditions: high dose 250 μg/kg BW/day, various substrates, vs placebo
Procedure: (§2) The major part of the liver and the red part of each quadriceps were rinsed, and chopped into isolation medium (250 mM sucrose, 20 mM Tris-HCl and 1 mM EGTA-Tris, pH 7.4). Nuclei and cell debris were removed by centrifugation at 800 g for 10 min. Mitochondria were then isolated from the supernatant by spinning twice at 8,000 g for 10 minutes. The mitochondrial pellet was resuspended in 0.5 ml of isolation buffer and kept on ice. Mitochondrial protein was measured by the bicinchoninic acid method (Pierce, Rockford, Ill.). The final mitochondrial suspensions were maintained on ice and were used for measurements of oxygen consumption rate.
(§3) The rate of mitochondrial oxygen consumption (JO2) was measured at 30° C. in an incubation chamber with a Clark-type O2 electrode filled with 2 ml of incubation medium (125 mM KCl, 10 mM Pi-Tris, 20 mM Tris-HCl, 0.1 mM EGTA, pH 7.2). All measurements were performed using mitochondria (1.0 or 0.2 mg mitochondrial protein/ml for liver and skeletal muscle) incubated either with various substrates: glutamate/malate (5 mM/2.5 mM) and succinate (5 mM), alone or in combination, palmitoyl carnitine (55 μM) and octanoyl carnitine (100 μM). For each substrate, JO2 was recorded in the presence of the substrate alone (State 2) and following the addition of 1 mM ADP (state 3). Oligomycin (1.25 μg/mg protein) was added to the mitochondrial suspension to determine the non-phosphorylating respiratory rate (state 4). The incubation medium was constantly stirred with a built-in electromagnetic stirrer and bar flea. The efficiency of the mitochondrial oxidative phosphorylation was assessed by the state 3/state 4 ratio which measures the degree of control imposed on oxidation by phosphorylation (respiratory control ratio, RCR).

[7] = test system: muscle mitochondria; experiment: Rate of muscle mitochondrial oxygen consumption (JO2) of treated Wistar rats; type: in vivo, rat; conditions: 250 μg/kg BW/day, vs placebo
Procedure: as §2, §3

[8] = test system: Wistar rats; experiment: Plasma concentrations of glucose, triglycerides, cholesterol, FFA and HDL in Wistar rats; type: in vivo, rat; conditions: day of sacrifice, vs placebo
Excerpt: These measurements were done on venous blood of the rats the day of the sacrifice.
as §1
Glucose and 3-hydroxybutyrate (3-HB) were measured enzymatically and non esterified fatty acid (NEFA) by colorimetric assay (Wako Chemicals).
Triglycerides and cholesterol were measured by classical routine automate apparatus.

[9] = high dose 25 μg/100 g BW pellet
[10] = Wistar rats, high dose 250 μg/kg BW/day

In the case of `NC(Cc1cc(I)c(Oc2ccc(O)cc2)c(I)c1)C(=O)O` (centres unmarked) [3,5-T2], the Fat deposit [1] is given as “less fat deposit” and the Weight gain [1] is given as “gained less weight”.

For `N[C@@H](Cc1cc(I)c(Oc2cc(I)c(O)c(I)c2)c(I)c1)C(=O)O` [T4, thyroxine], the “Binding to the nuclear (TH) receptors” value [2] is given as “binds less efficiently”.

For `N[C@@H](Cc1cc(I)c(Oc2ccc(O)c(I)c2)c(I)c1)C(=O)O` [T3], the “Binding to the nuclear (TH) receptors” value [2] is given as “binds very efficiently”.

With `N[C@@H](Cc1ccc(Oc2ccc(O)c(I)c2)c(I)c1)C(=O)O` [3,3′-T2, 3′,3-diiodothyronine] the “Food intake immediately after the pellet” value ([3]; 25 μg/100 g BW pellet, from day 4 until day 7) was “decrease”, the “Food intake (appetite)” value ([3]; high dose 25 μg/100 g BW pellet, 21 days, vs placebo) was “higher value as compared to those of placebo animals” and the “Growth rate (body weight)” value ([3]; high dose 25 μg/100 g BW, subcutaneous pellet, 21 days, vs placebo) was “did not show any weight gain”. For the same molecule, the “Respiratory quotient (RQ) during the day (diurnal period)” value [4] was “lower than that of placebo”, the “Respiratory quotient (RQ) during the night” value [4] was “almost the same as those described for rT3” and the Fat mass ([5]; 250 μg/kg BW pellet) was “significantly decreased”. The “Brown adipose tissue mass” value [5, 9] was “significantly increased”, the “Muscle mass (lean body mass)” value [5, 9] was “not affected” and the “Liver mitochondrial respiratory rate, non-phosphorylating (state 4, oligomycin)” value [6] was “much higher as compared to placebo”. The “Liver mitochondrial respiratory rate, phosphorylating (state 3, ADP)” value [6] was “very significant increased respiratory rate”, the “Muscle mitochondrial respiration, non-phosphorylating (state 4)” value [7] was “failed to substantially affect” and the “Muscle mitochondrial respiration, phosphorylating (state 3)” value [7] was “failed to substantially affect”. For the same molecule, the Cholesterol plasmatic concentration ([8]; Wistar rats, 250 μg/kg BW/day) was “significantly lower”, the “Plasma free fatty acids (FFA)” value [8, 10] was “higher” and the Triglycerides plasmatic concentration [8, 10] was “significantly lower”. The “Fasting glucose plasmatic concentration” value ([8]; normal (non diabetic) Wistar rats, 250 μg/kg BW/day) was “slightly increased”.

— patent publication US20110064773A1, “PHARMACEUTICAL COMPOSITIONS COMPRISING A THYROID HORMON AND THEIR THERAPEUTIC USE” (UNIVERSITE JOSEPH FOURIER, priority 2007, published 2011)
